Data from patent EP2527319A1, “Crystalline forms of pregabalin and co-formers in the treatment of pain” (Laboratorios del. Dr. Esteve, S.A., priority 2011, dated 2012).
Values after ≈ are worked out from the molar mass of the structure shown. Where two headings read alike, the source gives them in different places.

Assays:
[1] = for hygroscopicity (classification from DVS): 15 to 95% RH, result in words; for hygroscopicity (classification from DVS) / Δ %weight 24 h: DVS; for Δ %weight 24 h: humidity increased stepwise from 15 to 95% RH at constant temperature; for Hygroscopicity (85-95%): summary table, same figures as Δ %weight 24 h of Table 1
Protocol: The objective was to measure the hygroscopicity of some crystalline forms of the present invention. The percentage increase of mass was calculated in order to evaluate the adsorption of water in the samples.
Dynamic Vapour Sorption (DVS) analysis is a technique specifically designed to provide information related to material response to changes in relative humidity and T°C. A Q5000 SA DVS equipment from TA Instruments was used for running the experiment.
The variation of the weight is controlled and the following percentage is calculated: Δ %weight = (Pn-P1)/P1 x 100 [formula] wherein: P1 is the initial weight , Pn is the weight measured for the sample.

[2] = for Hygroscopicity: storage at ambient and humidity (40 C, 85-95% RH) conditions; for Hygroscopicity (85-95%): summary table, 85-95% RH, result in words
[3] = pH 7.4; free form; cited from earlier work

| SMILES | hygroscopicity (classification from DVS) [1] | hygroscopicity (classification from DVS) ([1]; listed as sample 1) | Δ %weight 24 h [1] | Hygroscopicity (85-95%) [1] [%] | Hygroscopicity [2] | Hygroscopicity (85-95%) [2] | solubility in water [3] [mg/mL] |
| --- | --- | --- | --- | --- | --- | --- | --- |
| CC(C)C[C@H](CN)CC(=O)O.Cl.O=C(O)[C@@H]1CCCN1 [Example 6, (S)-Pregabalin - L-proline - HCl (1:1:1)] | deliquescent | sufficient water was absorbed to form a liquid | 95% | 95 | hygroscopic tendencies, particularly at humid conditions, to such an extent that it liquefied |  |  |
| CC(C)C[C@H](CN)CC(=O)O.CCCCCCCCCCCC(=O)O [Example 11, (S)-Pregabalin - lauric acid (1:1)] | not hygroscopic |  | 0% |  | non-hygroscopic | Non-hygroscopic |  |
| CC(C)C[C@H](CN)CC(=O)O.CC(C)C[C@H](CN)CC(=O)O.O.O=C(O)/C=C\C(=O)O.O=C(O)/C=C\C(=O)O [Example 7, (S)-Pregabalin - maleic acid - H2O (1:1:0.5)] | very hygroscopic |  | 37,9% | 37.9 |  |  |  |
| CC(C)C[C@H](CN)CC(=O)O [PGB free base, (S)-3-(aminomethyl)-5-methylhexanoic acid, reference compound] |  |  |  |  |  | Non-hygroscopic | 32 (≈ 201 mM) |
